Measured values reported in patent US6268377A, “Method for treating androgen-related conditions” (Merck & Co., Inc., priority 1999, dated 2001).
Entries after “also recorded” stand apart in the source; their conditions may differ. Read-outs that look alike come from different tables or passages of the source.

Legend:
5α-reductase 1 = conditions: isozyme predominating in sebaceous glands of facial and skin tissue; G. Harris et al. 1992; cited from earlier work
[1] = system: men with clinical benign prostatic hyperplasia (BPH); test: Four-year double-blind placebo-controlled clinical study of finasteride, analysed by concomitant calcium channel blocker use; type: in vivo, human; conditions: for Hazard Ratio (95% CI), AUR / Hazard Ratio (95% CI), Precipitated AUR / Hazard Ratio (95% CI), Spontaneous AUR / Hazard Ratio (95% CI), Surgery / Hazard Ratio (95% CI), Surgery and AUR: finasteride vs placebo; for Urologic events: AUR (incidence) / Urologic events: Precipitated AUR (incidence) / Urologic events: Spontaneous AUR (incidence) / Urologic events: Surgery (incidence) / Urologic events: Surgery and AUR (incidence): 5 mg finasteride daily, four-year study
Procedure: A total of 3040 men with clinical benign prostatic hyperplasia (BPH) diagnosed on the basis of moderate-to-severe symptoms, a decreased peak urinary flow rate (less than 15 mL/sec with a voided volume of 150 mL or more) and an enlarged prostate gland by digital rectal examination (DRE) were enrolled in a four-year study comparing finasteride with placebo. Men receiving alpha blocking agents or antiandrogens, and men with a history of chronic prostatitis, recurrent urinary tract infections, prostate or bladder cancer or surgery, or a serum prostate specific antigen (PSA) over 10 ng/mL were excluded. Men with serum PSA concentrations between 4.0 and 9.9 ng/mL had to have a negative prostate biopsy prior to enrollment.
After a one-month single-blind placebo lead-in, men were randomly assigned to receive placebo or 5 mg of finasteride (17β-(N-tert-butylcarbamoyl)-3-oxo-4-aza-5α-androst-1-en-3-one)daily in a four year, double-blind placebo-controlled study. BPH-related outcomes including symptoms, bothersomeness, adverse events and urinary flow rates, were assessed every 4 months. Serum PSA was measured every 4 months in the first year and then every 8 months at a central laboratory. Physical examination and routine hematological and serum chemistry tests were performed yearly. Magnetic resonance imaging (MRI) was performed at baseline and subsequently yearly in a subset of 10% of patients. All MRI images were read by a central radiologist blinded to treatment allocation and time of imaging.
Acute urinary retention (AUR) and surgery for BPH were predefined secondary end-points. The endpoint committee, blinded to treatment group, reviewed all study-related documents related to episodes of acute urinary retention, and all prostate surgeries for BPH, excluding surgery for prostate cancer. The endpoint committee classified episodes of AUR as spontaneous versus precipitated (when contributing factors such as urinary tract infection, surgery anesthesia, ingestion of alpha sympathomimetic drugs or anticholinergics were identified).
For a relatively clean comparison, data from patients in categories (a) and (b) were analyzed and patients in category (c) were excluded.

5α-reductase 2 = conditions: isozyme predominating in the prostate, cited from earlier work
[2] = finasteride treated patients also on calcium channel blockers vs not on calcium channel blockers
[3] = patients who did not take a calcium channel blocker
[4] = patients who took a calcium channel blocker for more than 365 days
[5] = patients who did not take a calcium channel blocker, N = 1181
[6] = patients who took a calcium channel blocker for more than 365 days, N = 236

Q: Which results are given for `CC(C)(C)NC(=O)[C@H]1CC[C@H]2[C@@H]3CC[C@H]4NC(=O)C=C[C@]4(C)[C@H]3CC[C@]12C` [Finasteride, 17β-(N-tert-butylcarbamoyl)-3-oxo-4-aza-5α-androst-1-ene-3-one]?
A: sensitivity of 5α-reductase type 1 to finasteride (5α-reductase 1): relatively insensitive; rate of improvement in symptom score by month 16 ([1]; finasteride only group): continued to increase; change of PSA (prostate specific antigen) versus time in the study ([1]; finasteride plus calcium channel blocker for more than 365 days, compared with finasteride only and placebo groups (FIG. 1)): greater decrease in PSA; also recorded: greatest decrease in PSA; change in Quasi-AUA symptom score versus time in the study ([1]; finasteride plus calcium channel blocker for more than 365 days, compared with finasteride only and placebo groups (FIG. 2)): initally improved much faster; also recorded: greatest decrease in symptom score; change in maximum urinary flow rate versus time in the study ([1]; finasteride plus calcium channel blocker for more than 365 days, compared with finasteride only and placebo groups (FIG. 3)): greater increase in maximum urinary flow rate; also recorded: greatest increase in maximum flow rate after 12 months; change in prostate volume versus time in the study ([1]; finasteride plus calcium channel blocker for more than 365 days, compared with finasteride only and placebo groups (FIG. 4)): greater decrease; also recorded: greatest decrease in prostate volume; rate of improvement in symptom score by month 16 ([1]; finasteride plus calcium channel blocker group): decreased rate of improvement in symptom score; incidence of spontaneous acute urinary retention (AUR) (comparison) [1, 2]: lower; incidence of urologic surgery (comparison) [1, 2]: lower; Hazard Ratio (95% CI), AUR [1, 3]: 0.44 (0.30 to 0.64); Hazard Ratio (95% CI), Precipitated AUR [1, 3]: 0.55 (0.31 to 0.99); Hazard Ratio (95% CI), Spontaneous AUR [1, 3]: 0.38 (0.23 to 0.62); Hazard Ratio (95% CI), Surgery [1, 3]: 0.42 (0.31 to 0.57); Hazard Ratio (95% CI), Surgery and AUR [1, 3]: 0.48 (0.37 to 0.62); Hazard Ratio (95% CI), AUR [1, 4]: 0.46 (0.20 to 1.10); Hazard Ratio (95% CI), Precipitated AUR [1, 4]: 0.50 (0.19 to 1.31); Hazard Ratio (95% CI), Spontaneous AUR [1, 4]: 0.24 (0.05 to 1.21); Hazard Ratio (95% CI), Surgery [1, 4]: 0.55 (0.25 to 1.22); Hazard Ratio (95% CI), Surgery and AUR [1, 4]: 0.53 (0.28 to 1.00); Urologic events: AUR (incidence) [1, 5]: 2.6%; Urologic events: Precipitated AUR (incidence) [1, 5]: 1.4%; Urologic events: Spontaneous AUR (incidence) [1, 5]: 1.4%; Urologic events: Surgery (incidence) [1, 5]: 4.4%; Urologic events: Surgery and AUR (incidence) [1, 5]: 6.4%; Urologic events: AUR (incidence) [1, 6]: 3.0%; Urologic events: Precipitated AUR (incidence) [1, 6]: 2.5%; Urologic events: Spontaneous AUR (incidence) [1, 6]: 0.4%; Urologic events: Surgery (incidence) [1, 6]: 3.8%; Urologic events: Surgery and AUR (incidence) [1, 6]: 5.9%; inhibition of 5α-reductase type 2 (human prostate enzyme) (5α-reductase 2): potent inhibitor; inhibition of 5α-reductase type 2 (human prostate enzyme) (5α-reductase 2; listed as finasteride): potently inhibited
